Source: US20030119895A1, “Methods using a combination of a 3-heteroaryl-2-indolinone and a cyclooxygenase-2 inhibitor for the treatment of neoplasia” (Pharmacia Corporation, priority 1998, published 2003)
Several values for one entry are separate records, joined by “and”; a condition that tells them apart may be missing. Equal values may be shown once.

Columns and labels:
[1] = system: fibroblast growth factor-induced corneal angiogenesis; conditions: rats; cited from earlier work
[2] = system: 3T3/E/H+TGF-a(T) (NIH 3T3 cells expressing EGFR/HER2 chimera and TGF-a); assay: SRB Assay 1: 3T3/E/H+TGF-a(T) Cell Growth SRB Assay; type: cell-based; conditions: Mus musculus, NIH3T3, SRB Readout
[3] = system: HUV-EC-C cells (human umbilical vein endothelial cells); assay: HUV-EC-C Assay, VEGF-stimulated [3H] thymidine incorporation; type: cell-based; conditions: Homo sapiens, HUVEC, Mitogenesis in Endothelial Cells
[4] = system: HUV-EC-C cells (human umbilical vein endothelial cells); assay: HUV-EC-C Assay, a-FGF (ECGF)-stimulated [3H] thymidine incorporation; type: cell-based; conditions: Homo sapiens, HUVEC, Mitogenesis in Endothelial Cells
Protocol: The following protocol may also be used to measure the composition's activity:
1. […] After cells have detached from the flask, add an equal volume of assay medium and transfer to a 50 ml sterile centrifuge tube (Fisher Scientific; catalogue no. 05-539-6).
2. Wash the cells with about 35 ml assay medium in the 50 ml sterile centrifuge, tube by adding the assay medium, centrifuge for 10 minutes at approximately 200× g, aspirate the supernatant, and resuspend with 35 ml D-PBS. Repeat the wash two more times with D-PBS, resuspend the cells in about 1 ml assay medium/15 cm^2 of tissue culture flask. Assay medium consists of F12K medium (Gibco BRL; catalogue no. 21127-014)+0.5% heat-inactivated fetal bovine serum. Count the cells with a Coulter Counter.RTM.v Coulter Electronics, Inc.) and add assay medium to the cells to obtain a concentration of 0.8-1.0×10^5 cells/ml.
3. Add cells to 96-well flat-bottom plates at 100 μl/well or 0.8-1.0×10^4 cells/well; incubate about 24 h at 37° C., 5% CO2.
1. Make up two-fold drug titrations in separate 96-well plates, generally 50 μM on down to 0 μM. Use the same assay medium as mentioned in day 0, step 2 above. Titrations are made by adding […] of drug at 200 μM (4× the final well concentration) to the top well of a particular plate column. Since the stock drug concentration is usually 20 mM in DMSO, the 200 μM drug concentration contains 2% DMSO. Therefore, diluent made up to 2% DMSO in assay medium (F12K+0.5% fetal bovine serum) is used as diluent for the drug titrations in order to dilute the drug but keep the DMSO concentration constant. Add this diluent to the remaining wells in the column at 60 μl/well. Take 60 μl from the 120 μl of 200 μM drug dilution in the top well of the column and mix with the 60 μl in the second well of the column. Take 60 μl from this well and mix with the 60 μl in the third well of the column, and so on until two-fold titrations are completed. When the next-to-the-last well is mixed, take 60 μl of the 120 μl in this well and discard it. Leave the last well with 60 μl of DMSO/media diluent as a non-drug-containing control. Make 9 columns of titrated drug, enough for triplicate wells each for 1) VEGF (obtained from Pepro Tech Inc., catalogue no. 100-200, 2) endothelial cell growth factor (ECGF) (also known as acidic fibroblast growth factor, or aFGF) (obtained from Boehringer Mannheim Biochemica, catalogue no. 1439 600), and assay media control. ECGF comes as a preparation with sodium heparin.
2. Transfer 50 μl/well of the drug dilutions to the 96-well assay plates containing the 0.8-1.0×10^4 cells/100 μl/well of the HUV-EC-C cells from day 0 and […] incubate ~2 h at 37° C., 5% CO2.
3. In triplicate, add 50 μl/well of 80 ng/ml VEGF, 20 ng/ml ECGF, or media control to each drug condition. As with the drugs, the growth factor concentrations are 4× the desired final concentration. Use the assay media from day 0 step 2 to make the concentrations of growth factors. Incubate approximately 24 hours at 37° C., 5% CO2. Each well will have 50 μl drug dilution, 50 μl growth factor or media, and 100 ul cells,=200 ul/well total. Thus the 4× concentrations of drugs and growth factors become 1× once everything has been added to the wells.
1. Add ^3H-thymidine (Amersham; catalogue no. TRK-686) at 1 μCi/well (10 μl/well of 100 μCi/ml solution made up in RPMI media+10% heat-inactivated fetal bovine serum) and incubate about 24 h at 37° C., 5% CO2.
Note: ^3H-thymidine is made up in RPMI media because all of the other applications for which we use the ^3H-thymidine involve experiments done in RPMI. The media difference at this step is probably not significant. RPMI was obtained from Gibco BRL, catalogue no. 11875-051.
1. Freeze plates overnight at −20° C.
1. Thaw plates and harvest with a 96-well plate harvester (Tomtec Harvester 96.RTM.) onto filter mats (Wallac; catalogue no. 1205-401); read counts on a Wallac Betaplate™ liquid scintillation counter.

EpH4-VEGF = assay: Xenograft Assay 2: FLK-1/Xenograft Model, subcutaneous xenograft (In Vivo Data, EpH4-VEGF); set-up: species or system mice
Protocol: Assay 2: FLK-1/Xenograft Model
The ability of the compounds of the present invention to inhibit ovarian, melanoma, prostate, lung and mammary tumor cell lines established as SC xenografts was examined. These studies were conducted using doses ranging from 1 to 75 mg/kg/day.
Materials And Methods. The tumor cells were implanted subcutaneously into the indicated strains of mice. Treatment was initiated on day 1 post implantation unless otherwise indicated (e.g. treatment of the SCID mouse related to the A375 melanoma cell line began on Day 9). Eight (8) to sixteen (16) mice comprised each test group.
Animals. Female athymic mice (BALB/c, nu/nu), BALB/c mice, Wistar rats and Fisher 344 rats were obtained from Simonsen Laboratories (Gilroy, Calif.). Female A/I mice were obtained from Jackson Laboratory (Bar Harbor, Me.). DA rats were obtained from B&K Universal, Inc. (Fremont, Calif.). Athymic R/Nu rats, DBA/2N mice, and BALB/c mice were obtained from Harlan Sprague Dawley (Indianapolis, Ind.). Female C57BU6 mice were obtained from Taconic (Germantown, N.Y.). All animals were maintained under clean-room conditions in Micro-isolator cages with Alpha-dri bedding. They received sterile rodent chow and water ad libitum.
All procedures were conducted in accordance with the NIH Guide for the Care and Use Of Laboratory Animals.
Subcutaneous Xenograft Model. Cell lines were grown in appropriate medium as described. Cells were harvested at or near confluency with 0.05% Trypsin-EDTA and pelleted at 450×g for 10 min. Pellets were resuspended in sterile PBS or media (without FBS) to a suitable concentration indicated in the Figure legends and the cells were implanted into the hindflank of mice. Tumor growth-was measured over 3 to 6 weeks using venier calipers and tumor volumes were calculated as a product of length x width x height unless otherwise indicated. P values were calculated using the Students' t-test.
Different concentrations of a compound in 50-100 μl excipient (dimethylsulfoxide, PBTE, PBTE6C:D5W, or PBTE:D5W) were delivered by IP injection.
Results for various compounds obtained from the above-described in vivo assays are set forth at Table 5, below: […]

PDGFR = biological target: T1, PDGFR (Homo sapiens, UniProt P09619); assay: PDGF-R ELISA (U1242 cells); type: cell-based; conditions: ELISA Assay Results
T1 construct: other: ELISA Assay Results; U1242 cells

FLK-1 receptor = biological target: T2, FLK-1 receptor (Mus musculus, UniProt P35918); assay: FLK-1 ELISA (kinase activity of the FLK-1 receptor in FLK-1/NIH3T3 cells); type: cell-based; conditions: ELISA Assay Results, VEGF stimulation
T2 construct: expressed in transfected cells; host or cells: NIH3T3 C7#3 (FLK-1/NIH3T3)

HER2 kinase = biological target: T3, HER2 kinase (Homo sapiens, UniProt P04626); assay: HER-2 ELISA Assay 1: EGF Receptor-HER2 Chimeric Receptor Assay In Whole Cells; type: cell-based; conditions: ELISA Assay Results
T3 construct: fused on or other part: The EGFR extracellular domain serves for EGF stimulation and for capture by mAb 05-101; The HER2 part carries the kinase domain; P00533 (Epidermal growth factor receptor)

[5] = system: 3T3/PDGF-βR/PDGF-BB(T) (NIH 3T3 cells expressing PDGFβ-receptor and PDGF-BB); assay: SRB Assay 3: 3T3/PDGF-βR/PDGF-BB(T) Cell Growth SRB Assay; type: cell-based; conditions: Mus musculus, NIH3T3, SRB Readout, read-out: 3T3/PDGFR + PDGF (T) IC50
Protocol: Assay 3: 3T3/PDGF-βR/PDGF-BB(T) Cell Growth SRB Assay
Cell line and growth medium:
3T3/PDGF-βR/PDGF-BB(T) (NIH 3T3 clone 7 cells expressing PDGFβ-receptor and PDGF-BB, from tumors resected from athymic mice) 2% calf serum/DMEM+2 mM glutamine
This part of assay is carried out in a laminar flow hood.
1. Trypsinize cells as usual. Transfer 200 μl of cell suspension to 10 ml of isotone. Count cells on the Coulter Counter.
2. Dilute cells in growth medium to 60,000 cells/ml. Transfer 100 μl of cells to each well in a 96-well flat bottom plate to give 6000 cells/well.
3. Allow half of plate (4 rows) for each compound and quadruplicate wells for each compound concentration, a set of 4 wells for medium control and 4 wells for DMSO control.
4. Gently shake plates to allow for uniform attachment of the cells to the plate.
5. Incubate the plates at 37° C. in a 10% CO2 incubator.
Day 1: Addition of Compound: same as for Assay 1.
Day 5: Development of Assay: same as for Assay 1.
3T3/E/H+TGF-α(T): NIH 3T3 cells expressing EGFR/HER2 chimera and TGF-α, tumor-derived 3T3/EGFR+TGF-α(T): NIH 3T3 cells expressing EGFR and TGF-α, tumor-derived 3T3/PDGFR+PDGF(T): NIH 3T3 cells expressing PDGF-βR and PDGF-ββ, tumor-derived SMC: human smooth muscle cells from Clonetics

T1 sequence (P09619 33-1106): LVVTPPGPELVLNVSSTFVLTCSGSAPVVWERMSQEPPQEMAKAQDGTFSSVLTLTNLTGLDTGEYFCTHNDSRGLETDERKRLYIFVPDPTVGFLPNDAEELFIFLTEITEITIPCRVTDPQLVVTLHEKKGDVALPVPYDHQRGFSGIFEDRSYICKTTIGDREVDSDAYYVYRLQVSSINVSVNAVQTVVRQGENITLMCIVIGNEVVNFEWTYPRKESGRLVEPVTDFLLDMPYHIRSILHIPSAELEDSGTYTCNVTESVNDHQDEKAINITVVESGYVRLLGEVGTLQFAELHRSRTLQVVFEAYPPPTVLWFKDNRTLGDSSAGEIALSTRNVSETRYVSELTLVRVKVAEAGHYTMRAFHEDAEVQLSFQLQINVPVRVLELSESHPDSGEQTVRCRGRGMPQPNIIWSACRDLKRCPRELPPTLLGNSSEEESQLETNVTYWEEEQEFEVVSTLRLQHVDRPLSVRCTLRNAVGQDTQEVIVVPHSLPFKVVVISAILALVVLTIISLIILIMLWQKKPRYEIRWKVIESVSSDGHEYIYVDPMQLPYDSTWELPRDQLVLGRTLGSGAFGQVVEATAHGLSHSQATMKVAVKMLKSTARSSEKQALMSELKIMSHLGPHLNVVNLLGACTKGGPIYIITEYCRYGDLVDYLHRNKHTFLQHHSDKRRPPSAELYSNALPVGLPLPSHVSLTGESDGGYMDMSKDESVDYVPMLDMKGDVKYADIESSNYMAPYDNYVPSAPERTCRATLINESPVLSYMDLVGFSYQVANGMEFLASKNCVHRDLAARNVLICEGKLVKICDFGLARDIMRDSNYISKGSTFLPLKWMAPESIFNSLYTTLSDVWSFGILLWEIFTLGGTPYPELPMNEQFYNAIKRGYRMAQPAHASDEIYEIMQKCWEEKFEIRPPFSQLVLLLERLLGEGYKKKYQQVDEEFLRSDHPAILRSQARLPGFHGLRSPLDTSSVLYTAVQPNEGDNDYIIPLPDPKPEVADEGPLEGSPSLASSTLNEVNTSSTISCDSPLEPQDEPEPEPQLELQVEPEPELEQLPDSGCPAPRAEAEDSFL
T2 sequence (P35918 20-1345): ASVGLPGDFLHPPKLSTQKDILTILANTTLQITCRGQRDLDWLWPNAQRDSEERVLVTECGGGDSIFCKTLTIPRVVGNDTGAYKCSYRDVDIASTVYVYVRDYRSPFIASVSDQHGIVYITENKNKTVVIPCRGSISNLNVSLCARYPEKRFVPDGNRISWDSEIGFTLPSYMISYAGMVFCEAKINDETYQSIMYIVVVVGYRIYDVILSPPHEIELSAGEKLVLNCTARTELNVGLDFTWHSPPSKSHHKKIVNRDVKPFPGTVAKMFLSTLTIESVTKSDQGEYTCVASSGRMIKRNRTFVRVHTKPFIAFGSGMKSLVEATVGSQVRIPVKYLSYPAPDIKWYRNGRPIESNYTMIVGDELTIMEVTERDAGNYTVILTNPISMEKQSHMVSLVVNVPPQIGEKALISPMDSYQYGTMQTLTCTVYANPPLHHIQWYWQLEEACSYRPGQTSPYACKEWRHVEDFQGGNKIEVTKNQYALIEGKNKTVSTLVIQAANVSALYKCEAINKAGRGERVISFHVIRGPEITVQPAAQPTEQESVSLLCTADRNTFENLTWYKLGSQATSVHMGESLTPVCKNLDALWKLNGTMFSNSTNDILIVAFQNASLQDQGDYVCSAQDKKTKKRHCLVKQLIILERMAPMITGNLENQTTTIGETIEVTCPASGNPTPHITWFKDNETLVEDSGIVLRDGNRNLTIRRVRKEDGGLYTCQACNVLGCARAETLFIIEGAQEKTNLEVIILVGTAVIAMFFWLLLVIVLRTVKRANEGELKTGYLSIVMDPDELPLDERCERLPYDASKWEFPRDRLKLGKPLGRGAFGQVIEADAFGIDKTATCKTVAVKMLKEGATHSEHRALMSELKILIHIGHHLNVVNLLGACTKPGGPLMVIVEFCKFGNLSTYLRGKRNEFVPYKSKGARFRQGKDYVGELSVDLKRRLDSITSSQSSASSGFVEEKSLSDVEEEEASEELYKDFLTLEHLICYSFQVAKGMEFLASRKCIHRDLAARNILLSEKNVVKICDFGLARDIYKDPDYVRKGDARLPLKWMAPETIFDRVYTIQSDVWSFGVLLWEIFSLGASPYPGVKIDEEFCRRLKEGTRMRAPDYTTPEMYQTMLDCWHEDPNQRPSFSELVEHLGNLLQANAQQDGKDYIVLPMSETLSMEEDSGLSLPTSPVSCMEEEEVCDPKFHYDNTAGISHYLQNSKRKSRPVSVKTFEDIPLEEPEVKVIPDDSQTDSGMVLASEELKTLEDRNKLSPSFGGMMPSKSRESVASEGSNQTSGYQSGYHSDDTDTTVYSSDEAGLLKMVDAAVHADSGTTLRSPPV
T3 sequence (P04626 720-987 limits assumed): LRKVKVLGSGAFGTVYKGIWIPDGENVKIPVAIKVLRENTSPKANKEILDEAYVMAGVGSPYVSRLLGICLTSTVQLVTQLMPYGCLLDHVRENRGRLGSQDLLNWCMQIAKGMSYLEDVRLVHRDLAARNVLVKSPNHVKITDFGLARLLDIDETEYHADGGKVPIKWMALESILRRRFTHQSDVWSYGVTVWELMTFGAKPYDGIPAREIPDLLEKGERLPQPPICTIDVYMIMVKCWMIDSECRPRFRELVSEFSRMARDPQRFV

Row | IC50 [3] | IC50 (PDGFR) | Structure (SMILES) | inhibition of fibroblast growth factor-induced corneal angiogenesis [1] | IC50 [2] | IC50 [4] | EpH4-VEGF % inhibition @ mg/kg (EpH4-VEGF; @ 50 mg/kg) | EpH4-VEGF % inhibition @ mg/kg (EpH4-VEGF; @ 75 mg/kg) | IC50 (FLK-1 receptor) | IC50 (HER2 kinase) | IC50 [5]
1 | – | – | Cc1ccc(-c2cc(C(F)(F)F)nn2-c2ccc(S(N)(=O)=O)cc2)cc1 [Celecoxib, celecoxib] | potent inhibition | – | – | – | – | – | – | –
2 | 1.1 µM | – | CN(C)c1ccc(C=C2C(=O)Nc3ccccc32)cc1 [SU4312, 3-(4-Dimethylaminobenzylidenyl)-2-indolinone] | – | 36 µM | 154 µM | 63% @ 50 | 56% @ 75 and 50% @ 75 | – | – | –
3 | 6.6 µM | 87.4 µM | COc1ccc(OC)c(C=C2C(=O)Nc3ccccc32)c1 [SU4793, 3-(2,5-Dimethoxybenzylidenyl)-2-indolinone] | – | – | 3.4 µM | – | – | – | – | –

Row | Structure (SMILES) | IC50 [3] | IC50 (PDGFR) | inhibition of fibroblast growth factor-induced corneal angiogenesis [1] | IC50 [2] | IC50 [4] | EpH4-VEGF % inhibition @ mg/kg (EpH4-VEGF; @ 50 mg/kg) | EpH4-VEGF % inhibition @ mg/kg (EpH4-VEGF; @ 75 mg/kg) | IC50 (FLK-1 receptor) | IC50 (HER2 kinase) | IC50 [5]
4 | O=CN1CCN(c2ccc(C=C3C(=O)Nc4ccccc43)cc2)CC1 [SU4984, 3-[4-(4-Formylpiperazin-1-yl)benzylidenyl]-2-indolinone] | 0.8 µM | – | – | – | 25.8 µM | – | – | 1.6 µM | 90.2 µM | 22.2 µM
